{"source": "PubChem BioAssay (NCI)", "tested_on": "MDA-MB-468 breast", "assay": "inhibition of tumour cell growth, NCI panel, 48 h", "note": "Where “and” joins values, the source holds several entries; their conditions need not be identical. Identical values can stand only once.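 The compound was tested at five concentrations on cells cultured in 96-well plates, with a 48-hour exposure period. GI50 marks 50% less growth. The concentration for full growth arrest is given as TGI.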", "data": [{"molecule": "Cc1ccncc1C(N)=O", "values": [{"measurement": "GI50", "result": "> 100000", "unit": "nM"}, {"measurement": "TGI", "result": "> 100", "unit": "µM"}]}, {"molecule": "COc1cc(C(=O)Nc2cc(O)c(CC=C(C)C)c(O)c2)cc2c1O[C@]1(C)CC[C@@H](O)C(C)(C)[C@H]1C2", "values": [{"measurement": "GI50", "result": 648, "unit": "nM"}, {"measurement": "TGI", "result": 32.9, "unit": "µM"}]}, {"molecule": "COc1ccc2c(c1)C(=O)c1c-2c(OCCN(C)C)nc2ccccc12", "values": [{"measurement": "GI50", "result": 2760, "unit": "nM"}, {"measurement": "TGI", "result": 11.3, "unit": "µM"}]}, {"molecule": "COc1ccc(/C=C(/C)[N+](=O)[O-])cc1OC", "values": [{"measurement": "GI50", "result": "1340 nM and 1150 nM"}, {"measurement": "TGI", "result": "2.77 µM and 2.53 µM"}]}, {"molecule": "COc1ccc(Nc2ccnc(N3CCN(c4ccnc5cc(Cl)ccc45)CC3)n2)cc1", "values": [{"measurement": "GI50", "result": 1500, "unit": "nM"}, {"measurement": "TGI", "result": "> 100", "unit": "µM"}]}, {"molecule": "CC1c2ccccc2CCN1c1ccc(CO)c(Cl)c1", "note": "(stereo unspecified)", "values": [{"measurement": "GI50", "result": 15.1, "unit": "nM"}, {"measurement": "TGI", "result": 0.0393, "unit": "µM"}]}, {"molecule": "C[C@@H]1Cc2cc(O)ccc2[C@H]2CC[C@]3(C)/C(=C/COCCN(C)C)CC[C@H]3[C@H]12", "note": "(tested in a mixture with another compound)", "values": [{"measurement": "GI50", "result": 1070, "unit": "nM"}, {"measurement": "TGI", "result": 3.2, "unit": "µM"}]}, {"molecule": "CN1CCc2nc3sc(C(N)=O)c(N)c3c(-c3cccs3)c2C1", "values": [{"measurement": "GI50", "result": 1750, "unit": "nM"}, {"measurement": "TGI", "result": 4.86, "unit": "µM"}]}, {"molecule": "N#CCCNc1nonc1-c1nc2ccccc2n1CC(=O)c1ccc(NC(=O)[C@@H](N)CCCCN)cc1", "values": [{"measurement": "GI50", "result": 23.6, "unit": "nM"}]}, {"molecule": "O=C(Nc1ccccc1OC(=O)c1ccccc1)c1ccccc1", "values": [{"measurement": "GI50", "result": 5640, "unit": "nM"}, {"measurement": "TGI", "result": "> 100", "unit": "µM"}]}, {"molecule": "CCOC(=O)c1c(NC(=O)c2cccc(C(F)(F)F)c2)sc2c3c(ccc12)OCN(C)C3", "values": [{"measurement": "GI50", "result": 1520, "unit": "nM"}, {"measurement": "TGI", "result": 2.97, "unit": "µM"}]}, {"molecule": "COc1cccc(Oc2ccccc2NC(=O)CNC(=O)c2cccc3ccccc23)c1", "values": [{"measurement": "GI50", "result": 331, "unit": "nM"}, {"measurement": "TGI", "result": "> 25", "unit": "µM"}]}, {"molecule": "CC1C=CC(OC(=O)C(C)(O)CCC(O)(C(=O)OC2CC(O)C(C(C)C)CC2(C)O)C(C)C)(C(C)C)CC1", "note": "(stereo unspecified)", "values": [{"measurement": "GI50", "result": 360, "unit": "nM"}, {"measurement": "TGI", "result": 1.22, "unit": "µM"}]}, {"molecule": "Oc1c(-c2cc(C(F)(F)F)[nH]n2)cc(Cl)c(OCc2ccc(Cl)cc2)c1-c1ccc(Cl)c(C(F)(F)F)c1", "values": [{"measurement": "GI50", "result": 208, "unit": "nM"}, {"measurement": "TGI", "result": 1.66, "unit": "µM"}]}, {"molecule": "COc1ccc2c(-c3ccnc(Nc4cccc(OC(F)(F)F)c4)n3)cnn2n1", "values": [{"measurement": "GI50", "result": 1260, "unit": "nM"}, {"measurement": "TGI", "result": 4.69, "unit": "µM"}]}, {"molecule": "COc1cc2c(cc1F)C(c1ccccc1Cl)=Nc1c(n[nH]c1C)N2", "values": [{"measurement": "GI50", "result": 342, "unit": "nM"}, {"measurement": "TGI", "result": 3.73, "unit": "µM"}]}, {"molecule": "CN1CCN(CCCCCN=c2cc3c(=O)n(CCCCCN4CCN(C)CC4)c(=O)c4c(NCCCCCN5CCN(C)CC5)cc5c(O)n(CCCCCN6CCN(C)CC6)c(=O)c2c5c4-3)CC1", "values": [{"measurement": "GI50", "result": 2260, "unit": "nM"}, {"measurement": "TGI", "result": 6.31, "unit": "µM"}]}, {"molecule": "C=CCc1cc(Nc2c3ccc(Cl)cc3nc3ccc(OC)cc23)cc(CN(CC)CC)c1O", "values": [{"measurement": "GI50", "result": 546, "unit": "nM"}, {"measurement": "TGI", "result": 3.24, "unit": "µM"}]}, {"molecule": "O=Nc1c(-c2c(O)[nH]c3ncccc23)[nH]c2ccccc12", "values": [{"measurement": "GI50", "result": 4120, "unit": "nM"}, {"measurement": "TGI", "result": "> 100", "unit": "µM"}]}, {"molecule": "O=C(CN1N=C(c2ccc(F)cc2)CCC1=O)Nc1nc2ccccc2s1", "values": [{"measurement": "GI50", "result": 21100, "unit": "nM"}, {"measurement": "TGI", "result": 85.9, "unit": "µM"}]}, {"molecule": "Oc1cccc2c1NCCC2", "values": [{"measurement": "GI50", "result": 1830, "unit": "nM"}, {"measurement": "TGI", "result": 8.49, "unit": "µM"}]}, {"molecule": "CCc1c(C)nc2sc3c(N)ncnc3c2c1C", "values": [{"measurement": "GI50", "result": "> 25000", "unit": "nM"}, {"measurement": "TGI", "result": "> 25", "unit": "µM"}]}, {"molecule": "O=c1c2cc(F)ccc2sc2c(NCCCNCCO)nc3ccccc3c12", "values": [{"measurement": "GI50", "result": 1090, "unit": "nM"}, {"measurement": "TGI", "result": 2.43, "unit": "µM"}]}, {"molecule": "COc1ccc(/C=C(\\C)[N+](=O)[O-])cc1OC", "values": [{"measurement": "GI50", "result": 1480, "unit": "nM"}, {"measurement": "TGI", "result": 3.05, "unit": "µM"}]}, {"molecule": "Cc1[nH]c(-c2cc(N)ccc2Cl)c2c1C(=O)CCCC2", "values": [{"measurement": "GI50", "result": 1900, "unit": "nM"}, {"measurement": "TGI", "result": 9.46, "unit": "µM"}]}, {"molecule": "FC(F)(F)c1cccc(-c2nn3ncccc3c2-c2ccnc(Nc3ccc4c(c3)OCCO4)n2)c1", "values": [{"measurement": "GI50", "result": 3970, "unit": "nM"}, {"measurement": "TGI", "result": 17.9, "unit": "µM"}]}, {"molecule": "CC(C)C[C@H](NC(=O)CCn1ccc2ccccc2c1=O)B(O)O", "values": [{"measurement": "GI50", "result": 1380, "unit": "nM"}, {"measurement": "TGI", "result": 7.08, "unit": "µM"}]}, {"molecule": "COc1cc(C(=O)c2cc(C)c3[nH]c4ccc(O)cc4c3c2C)cc(OC)c1OC", "values": [{"measurement": "GI50", "result": "< 15.7", "unit": "nM"}, {"measurement": "TGI", "result": 1.06, "unit": "µM"}]}, {"molecule": "O=C(CSc1nnc(-c2ccc(Cl)cc2)n1-c1ccccc1)Nc1ccc(Cl)cc1", "values": [{"measurement": "GI50", "result": 2830, "unit": "nM"}, {"measurement": "TGI", "result": 8.27, "unit": "µM"}]}, {"molecule": "O=C1C(OCCOc2ccccc2)=C(OCCOc2ccccc2)C(=O)c2ccccc21", "values": [{"measurement": "GI50", "result": 9920, "unit": "nM"}, {"measurement": "TGI", "result": "> 100", "unit": "µM"}]}, {"molecule": "COc1ccc(Nc2ccc([N+](=O)[O-])cc2[N+](=O)[O-])cc1CN(CCCl)CCCl", "values": [{"measurement": "GI50", "result": 1990, "unit": "nM"}, {"measurement": "TGI", "result": 5.09, "unit": "µM"}]}, {"molecule": "N/C(=N\\OC(=O)c1ccccc1)C(Cc1ccccc1)C(=O)NOC(=O)c1ccccc1", "note": "(stereo unspecified)", "values": [{"measurement": "GI50", "result": 4100, "unit": "nM"}, {"measurement": "TGI", "result": 17.5, "unit": "µM"}]}, {"molecule": "C[n+]1c2ccccc2nc2c(N)cc(N)cc21", "values": [{"measurement": "GI50", "result": 1180, "unit": "nM"}, {"measurement": "TGI", "result": 4.98, "unit": "µM"}]}, {"molecule": "c1ccc(N=C2c3ccsc3C(=Nc3ccccc3)c3ccsc32)cc1", "values": [{"measurement": "GI50", "result": 1780, "unit": "nM"}, {"measurement": "TGI", "result": 3.61, "unit": "µM"}]}, {"molecule": "COc1cc(/C=C/c2ccc3c(Br)cc(Br)c(O)c3n2)ccc1O", "values": [{"measurement": "GI50", "result": 1380, "unit": "nM"}, {"measurement": "TGI", "result": 5.29, "unit": "µM"}]}, {"molecule": "COc1cc(-c2nn(-c3cccc(NC(=O)CCN4CCN(Cc5ccccc5)CC4)c3)cc2-c2ccncc2)ccc1Cl", "values": [{"measurement": "GI50", "result": 433, "unit": "nM"}, {"measurement": "TGI", "result": 16.2, "unit": "µM"}]}]}
